Columns and labels:
[1] = biological target: BK channel (Bos taurus, UniProt Q28204); test: Single channel experiments, cultured bovine aortic smooth muscle cells; format: cell-based
Description: (§1) All experiments were performed with patch-clamp technique (Hamill et al., Pflugers Arch. 391, 85-100 (1981)). The ion composition of the internal solution was (in mM) 140 KCl, 1 CaCl2, 1 MgCl2, 2 EGTA, 10 HEPES and the external solution contained 140 NaCl, 4 KCl, 2 CaCl2, 1 MgCl2 and 10 HEPES.
The BK channels were also activated by N-(3-(trifluoromethyl)phenyl)-N'-(2-hydroxy-5-chlorophenyl) urea and N-phenyl-N'-(2-hydroxy-5-chlorophenyl) urea at concentrations equal or greater than 3 μM and by N-(3-(trifluoromethyl)phenyl)-N'-(2-hydroxy-5-(trifluoromethyl)phenyl) urea at concentrations greater than 10 μM.

[2] = system: BK channel; test: Single channel experiments, inside-out patches of human coronary artery smooth muscle cell membrane; format: cell-based; details: 1-10 μM
Description: as §1
In inside-out patches of human coronary artery smooth muscle cell membrane single BK channels were activated by for example N-(3-(trifluoromethyl)phenyl)-N'-(2-hydroxy-5-chlorophenyl) urea (1-10 μM).

[3] = biological target: BK currents (Bos taurus, UniProt Q28204); test: Whole cell recordings (patch-clamp, voltage clamp) of membrane currents in calf aortic smooth muscle cells; format: cell-based; details: 1-10 μM in the bath
Chain of BK currents (Q28067 whole entry): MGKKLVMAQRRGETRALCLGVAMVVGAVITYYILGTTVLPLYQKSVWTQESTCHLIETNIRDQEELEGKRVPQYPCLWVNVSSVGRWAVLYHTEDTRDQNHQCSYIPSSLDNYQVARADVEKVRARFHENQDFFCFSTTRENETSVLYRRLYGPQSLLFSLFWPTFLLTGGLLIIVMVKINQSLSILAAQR
Chain of BK currents (Q28204 whole entry): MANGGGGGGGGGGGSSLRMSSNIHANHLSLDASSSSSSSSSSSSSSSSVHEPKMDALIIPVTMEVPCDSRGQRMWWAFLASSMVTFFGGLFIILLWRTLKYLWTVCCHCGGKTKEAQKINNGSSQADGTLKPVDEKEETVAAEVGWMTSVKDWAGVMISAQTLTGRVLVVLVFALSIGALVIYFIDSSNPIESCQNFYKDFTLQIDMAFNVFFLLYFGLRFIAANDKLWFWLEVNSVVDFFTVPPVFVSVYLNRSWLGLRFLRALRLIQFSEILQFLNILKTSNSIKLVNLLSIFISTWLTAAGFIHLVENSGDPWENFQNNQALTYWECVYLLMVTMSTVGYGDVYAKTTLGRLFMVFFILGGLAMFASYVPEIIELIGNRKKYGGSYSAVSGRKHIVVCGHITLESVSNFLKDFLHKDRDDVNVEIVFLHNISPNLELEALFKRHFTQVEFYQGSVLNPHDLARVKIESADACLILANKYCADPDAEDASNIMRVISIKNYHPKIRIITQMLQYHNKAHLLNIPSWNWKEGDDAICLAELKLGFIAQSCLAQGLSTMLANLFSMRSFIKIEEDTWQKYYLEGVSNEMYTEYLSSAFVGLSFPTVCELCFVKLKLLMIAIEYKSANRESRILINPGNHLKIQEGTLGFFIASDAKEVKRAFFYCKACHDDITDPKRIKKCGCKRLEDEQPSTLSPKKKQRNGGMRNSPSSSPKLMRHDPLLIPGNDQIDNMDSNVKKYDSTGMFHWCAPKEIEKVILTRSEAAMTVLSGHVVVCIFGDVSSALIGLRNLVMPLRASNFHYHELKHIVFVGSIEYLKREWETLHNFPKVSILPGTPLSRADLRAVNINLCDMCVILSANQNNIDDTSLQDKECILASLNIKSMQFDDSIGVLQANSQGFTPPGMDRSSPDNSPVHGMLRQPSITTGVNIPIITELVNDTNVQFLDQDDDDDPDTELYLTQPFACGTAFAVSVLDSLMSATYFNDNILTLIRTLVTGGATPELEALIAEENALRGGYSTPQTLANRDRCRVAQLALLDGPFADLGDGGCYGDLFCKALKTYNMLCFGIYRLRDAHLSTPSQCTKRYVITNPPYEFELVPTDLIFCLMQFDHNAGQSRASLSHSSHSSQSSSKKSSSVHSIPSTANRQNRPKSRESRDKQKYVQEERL
Description: as §1
The membrane currents of calf aortic smooth muscle cells were determined in whole-cell recordings using voltage clamp mode (HEKA EPC-9 patch-clamp amplifier).

[4] = system: cocaine induced hypermotility; test: Cocaine motility test; format: in vivo; details: 10-30 mg/kg i.p. 15 min before 25 mg/kg cocaine; female NMRI mice; motility over 120 min
Description: The compound, N-(3-(trifluoromethyl)phenyl)-N'-(2-hydroxy-5-chlorophenyl) urea, has been studied in the cocaine motility test. Cocaine induces hypermotility due to an inhibition of dopamine reuptake. The test is recognized as a test predicting anti-psychotic activity.
Method: Two female NMRI mice (20-25 g) are placed in each test box (normal transparent plexiglas cage, w, l, h=21×39×19 cm) in the test room for at least 16 hours with food and water ad libitum before the test in order for the animals to habituate to the situation. The test compound is administered i.p. 15 min before saline or 25 mg/kg cocaine jip. to 32 mice (16 boxes) per dose. Food and water are withdrawn, and the motility is measured as the number of interrupted infrared photo-beams (8 per box placed 5 cm apart and 3 cm over the bottom of the cage) for the next 120 min.

[5] = system: acetylcholine-contracted guinea-pig ileum; test: Guinea-pig ileum experiment (relaxation of acetylcholine-contracted ileum); details: 3-30 μM; ileum precontracted with acetylcholine 0.015-5.0 μM
Description: The compound, N-(3-(trifluoromethyl)phenyl)-N'-(2-hydroxy-5-chlorophenyl) urea, has been studied for its ability to relax acetylcholine-contracted guinea-pig ileum. The smooth muscle cells of the ileum express many BK channels and the model predicts relaxing effects on the gastrointestinal or urogenital tracts.
Method: Ileum from guinea-pigs are isolated and mounted in an isometric contraction chamber. It is bathed in a physiological Krebs solution at 98° F. The ileum is precontracted with increasing concentrations of acetylcholine (0.015-5.0 μM). The contractions are reversed by including the compound in the bathing solution.

Chain of BK channel (Bos taurus, UniProt Q28204) (Q28204 whole entry): as above
Chain of BK channel (Bos taurus, UniProt Q28204) (Q28067 whole entry partner): as the sequence (Q28067 whole entry) above

Row | Structure (SMILES) | concentrations at which the BK channels were activated [1] | activation of the BK channel ([1]; 1 μM) | activation of single BK channels [2] | increase of the open probability of the BK channel [2] | activation of BK currents (blockable by charybdotoxin) [3] | increase of the outward current [3] | shift of the activation curve towards negative membrane potentials [3] | antagonism of cocaine induced hypermotility [4] | relaxation of acetylcholine-contracted guinea-pig ileum [5]
1 | O=C(Nc1cccc(C(F)(F)F)c1)Nc1cc(C(F)(F)F)ccc1O [N-(3-(trifluoromethyl)phenyl)-N'-(2-hydroxy-5-(trifluoromethyl)phenyl) urea] | greater than 10 μM | – | – | – | – | – | – | – | –
2 | O=C(Nc1cccc(C(F)(F)F)c1)Nc1cc(Cl)ccc1O [N-(3-(trifluoromethyl)phenyl)-N'-(2-hydroxy-5-chlorophenyl) urea] | ≥ 3 µM | significantly activated | activated | several hundred | specifically activated BK currents | up to 10 times | more than -60 mV | antagonizes cocaine induced hypermotility | relaxes the ileum in a dose-dependent way
3 | O=C(Nc1ccccc1)Nc1cc(Cl)ccc1O [N-phenyl-N'-(2-hydroxy-5-chlorophenyl) urea] | ≥ 3 µM | – | – | – | – | – | – | – | –
